Test results: the METLIN SMRT retention time set (Domingo-Almenara et al. 2019)

Test: gradient 5% acetonitrile 3 min, to 50% in 2 min, to 85% in 15 min, held 3 min, 100 µL/min
Conditions: column: Zorbax Extend-C18 2.1 x 50 mm; eluents: water / acetonitrile, 0.1% formic acid
How it was run: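 Using water and acetonitrile that each contained 0.1% formic acid, mixtures of ~100 pure standards were separated at 100 μL/min on a Zorbax Extend-C18 column (2.1 × 50 mm, 1.8 μm). The HPLC fed a quadrupole time-of-flight mass spectrometer working in positive and negative ionization mode, with dead and dwell volumes of 40 μL and 900 μL. Data were acquired over 3 months. Retention time was read from computationally picked adduct peaks after manual inspection of each.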

Structure (SMILES)	RP-LC retention time
Cc1cccc(CSc2nnc(CNC(=O)c3ccc(S(=O)(=O)N(C)C)cc3)o2)c1	803 s
Cc1nnc(-c2c(S(=O)(=O)N3CCC(Cc4ccccc4)CC3)c(C)n(C)c2C)o1	931 s
Cc1ccn2cc(-c3ccc(NC(=O)c4ccc(F)cc4)cc3)nc2n1	648 s
c1cc(-c2nc(-c3ccc4c(c3)ncn4CCN3CCCCC3)no2)ccn1	581 s
Cc1c2ccncc2cc2c1[nH]c1ccccc12	637 s
CN1C(=O)COc2ccc(-c3csc(NC(=O)COc4ccc(Cl)cc4)n3)cc21	1010 s
CCOC(=O)c1c(C)n(C)c2ccccc12	887 s
Cc1ccc(C(=O)Nc2ccc(N3CCN(C4CCCC4)C3=O)nc2)cc1F	918 s
COc1ccc(NC(=O)N2[C@H]3CC[C@@H]2c2cnc(-c4ccccc4)nc2C3)cc1OC	838 s
CNC(=O)c1cc(-c2ccccc2Cl)n[nH]1	668 s
Cc1nc2nc(-c3ccc(C(C)(C)C)cc3)nn2c(C)c1CC(=O)N1CCc2ccccc2C1	1120 s
CC1(C(=O)NCc2ccccc2)CN(S(C)(=O)=O)CC(=O)N1CCCc1ccccc1 (centres undefined)	856 s
Cn1c(CN2CCN(C(=O)NC(C)(C)C)CC2)nc2cc(C(=O)N3CCCC3)ccc21	602 s
Cc1ccc(C)c(Sc2cc(N3CCC(C(=O)NCCCOC(C)C)CC3)ncn2)c1	823 s
CCCN1CCn2cc(C(=O)NCc3ccc(C(C)C)cc3)nc2C1	665 s
Cc1cc(C)cc(NC(=O)N2CC(n3cnnc3-c3ccccc3)C2)c1	722 s
Cc1oc(-c2cccc(Cl)c2)nc1CN1CCN(C(=O)NC2CCCC2)CC1	690 s
Cc1noc(-c2nn(C)c3c2CN(C(=O)NC(C)C)CC3)n1	640 s
Cc1nnsc1C(=O)N1CCC2(CC1)OCCN2S(=O)(=O)c1ccc(Cl)cc1	817 s
CCCNC(=O)N1CCN(Cc2nc(-c3ccc(OCC)cc3)oc2C)CC1	661 s
CCS(=O)(=O)N1CC(=O)N(c2ccc(C)c(C)c2)C(C)(C(=O)NC2CCCCCC2)C1 (centres undefined)	979 s
Cc1ccccc1C1CCCN1C(=O)c1nn(C)cc1Cl (centres undefined)	849 s
Cc1ccccc1Cn1c(CN2CCC(C(=O)NC3CCCCCC3)CC2)cc2ccccc21	885 s

Structure (SMILES)	RP-LC retention time
CC(C)C(=O)Nc1ccc(CCc2nc3ccc(C(=O)NCCC4=CCCCC4)cc3[nH]2)cc1	731 s
Cc1ccc(Nc2c(-c3ccc(N(C)C)cc3)nc3ncccn23)cc1C	792 s
O=C(CCn1c(=O)oc2ccccc21)Nc1nc(-c2ccccc2)cs1	961 s
O=C(NC1CCCCC1)c1ccc(Cn2cncn2)cc1	671 s
OC(c1cc(C(F)(F)F)nc2c(C(F)(F)F)cccc12)C1CCCCN1 (centres undefined)	754 s
O=c1[nH]c2ccc(S(=O)(=O)Nc3cccc(C(F)(F)F)c3)cc2[nH]1	664 s
CCCCCC(=O)C(=O)c1ccc(O)cc1O	819 s
Cc1ccc(Cn2nc(C(=O)NCc3ccco3)ccc2=O)cc1	788 s
COc1cc(NC(=O)Cc2cn3cc(Cl)ccc3n2)c(OC)cc1Cl	675 s
O=S(=O)(NC1(c2nc(-c3ccsc3)no2)CCCCC1)c1ccc2c(c1)OCCO2	954 s
O=C1NC(=O)/C(=C\c2ccccc2Br)S1	821 s
Cc1ccc(NC(=O)Cn2c(N)nc(C)c(C)c2=O)c(C)c1	608 s
COc1ccc(-n2ncc3c(=O)n(Cc4nc(-c5cccc(OC)c5)no4)cnc32)cc1	984 s
CCOc1cc(=O)n2c(c1C(=O)Nc1cc(F)ccc1Cl)CCCC2	822 s
CN(C)c1ncncc1N1CCC(C(=O)NCC2CCCO2)CC1 (centres undefined)	566 s
CCOC(=O)c1cc(C)nc2c1c(=O)n(Cc1cccc(C(F)(F)F)c1)c(=O)n2C	1150 s
CC(C)c1nccn1C1CN(C(=O)COc2ccccc2)C1	596 s
O=C(Cc1ccccc1)NCCSc1c[nH]c2ccccc12	790 s
O=C(CS(=O)Cc1cnn(-c2ccccc2)c1-n1cccc1)NCc1cccc(F)c1 (centres undefined)	838 s
CCNc1nc(C)cc(N2CCN(C(=O)Nc3ccc(CC)cc3)CC2)n1	702 s
CC(C)CN1C(=O)c2cccn2CC1C(=O)NCc1ccco1 (centres undefined)	733 s
COC(=O)COc1cc(-c2ccccc2)nc2ccc(NS(=O)(=O)c3ccccc3)cc12	774 s
Cc1cc(C(N)=O)c2cc(C(C)C)ccc2n1	591 s

Structure (SMILES)	RP-LC retention time
CCOC(=O)c1c(C)[nH]c(C(=O)N2CCC(CC(=O)NC(C)CC)CC2)c1C (centres undefined)	715 s
CC(C)CCNC(=O)CN1C(=O)C2CCCCN2c2ccc(S(=O)(=O)N3CCCC3)cc21 (centres undefined)	940 s
Cc1ccc(Cl)cc1NC(=O)C1CC(=O)N(CCc2c[nH]c3ccc(F)cc23)C1 (centres undefined)	875 s
O=C(NCc1ccc(F)cc1)C1CCN(C(=O)c2ncn3c2COC(c2ccc(Cl)cc2)C3)CC1 (centres undefined)	842 s
COc1ccc(NC(=O)C2CCCN(c3nccnc3Sc3ccccc3)C2)cc1OC (centres undefined)	969 s
COC(=O)c1ccc(-c2csc(NC(=O)c3cc(C)no3)n2)cc1	846 s
COc1ccc(CCc2nc(Cn3c(C)nc4ccccc4c3=O)no2)cc1	858 s
Cc1ccc(-c2cn3ccccc3n2)cc1NS(=O)(=O)c1ccc(F)cc1	665 s
COCCc1noc(-c2ccc(=O)n(CC(=O)Nc3cc(F)ccc3F)c2)n1	728 s
Cc1noc(-c2ccnc(-n3cnc(C(=O)NCCc4ccc(Cl)cc4)c3)c2)n1	683 s
Cc1cc(NC(=O)Cn2c(=O)cc(-c3nc(C4CC4)no3)c3ccccc32)ccc1F	998 s
O=C(c1ccccc1)C1N=NCC1c1ccc(Cl)cc1 (centres undefined)	1040 s
O=C(CN1C(=O)CCCc2ccccc21)N1CCN(c2ccc(Cl)cc2)CC1	944 s
O=C(Nc1ccc(-c2nnc3n2CCCC3)cc1)C1CC1	609 s
CCOC(=O)c1c(C)[nH]c(C(=O)N2CCCC(C(=O)NC3CCCCCC3)C2)c1C (centres undefined)	892 s
CCOC(=O)c1ccc(-n2ccc3nc(C)c(C(=O)OC)cc3c2=O)cc1	874 s
Cc1cc(C)n(-c2cc(N3CCN(c4nc(-c5ccccc5)cs4)CC3)ccc2[N+](=O)[O-])n1	1190 s
COc1ccc(C(CNC(=O)c2cc(=O)c3cc(C)cc(C)c3o2)N(C)C)cc1 (centres undefined)	675 s
COCCC1(NS(C)(=O)=O)CCN(C(=O)NCC(C)C)CC1	646 s
CN(C)C(=O)CN1CCN(c2cc(C(=O)O)c3cc(NC(=O)c4cccc(Cl)c4)ccc3n2)CC1	612 s
Cn1c(=O)c2c(Nc3ccc(C(F)(F)F)cc3)ccnc2n(C)c1=O	1010 s
COc1ccc(NC(=O)Nc2nccn(-c3ccc(Cl)cc3)c2=O)cc1OC	854 s
COCCCn1c(C)cc(C(=O)NCC2Cn3cccc3C(=O)N2C)c1C (centres undefined)	666 s

Structure (SMILES)	RP-LC retention time
COc1cccc(-c2nc(C3CCN(S(=O)(=O)c4cc(C)ccc4C)CC3)no2)c1	1210 s
Cc1noc(/C=C/c2ccc(S(=O)(=O)NCC3CCCO3)s2)c1NC(=O)C1CC1 (centres undefined)	677 s
CCn1nccc1C(=O)Nc1ccc(-n2cnnn2)cc1	652 s
COCCCN(C(=O)c1ccc(F)cc1)C(C)C(=O)c1c(C)[nH]c(C(=O)OC)c1C (centres undefined)	754 s
Cc1cc(CN2CCC(CNC(=O)CSc3ccc(F)cc3)CC2)c(C)o1	583 s
CCc1cccc(NC(=O)C2CCCN(S(=O)(=O)c3cc(-c4noc(CC)n4)cs3)C2)c1 (centres undefined)	1090 s
COc1ccc(N2C(=O)C3N=NN(Cc4nc(-c5ccccc5Cl)no4)C3C2=O)cc1OC (centres undefined)	880 s
Cc1nc2ccc(NC(=O)c3cccnc3)cc2c(=O)n1-c1ccc(F)cc1	623 s
CCc1ccc(-c2ccc(=O)n(Cc3nc(-c4ccc5c(c4)OCO5)no3)n2)cc1	1080 s
COC(=O)CNC(=O)Cc1c(C)nn(-c2nc(-c3ccc(C)cc3)cs2)c1C	963 s
CS(=O)(=O)Nc1ccc(N2CCCCS2(=O)=O)cc1	615 s
O=c1oc2cc(O)ccc2cc1-c1ccc(F)cc1	852 s
CS(=O)(=O)N1CCC(OC2CCN(C(=O)Nc3cccc(Cl)c3F)CC2)CC1	787 s
COc1cc(OC)c(NC(=O)C(C)Oc2ccc(=O)n(-c3ccc(F)cc3)n2)cc1Cl (centres undefined)	844 s
Cc1ccc(C)c(-c2cc3c4nn(CC(=O)NCc5ccco5)c(=O)n4ccn3n2)c1	883 s
COc1ccc(CNC(=O)Cn2c(=O)c3cc(C4CC4)nn3c3ncccc32)cc1	742 s
CC(Cc1ccco1)NC(=O)CN1C(=O)C2CCCCN2c2ccc(S(=O)(=O)N(C)C)cc21 (centres undefined)	879 s
Cc1ccc(-n2nc3c(=O)n(CCCC(=O)NC4CC4)nc(C)c3c2C)cc1	717 s
Cc1noc(-c2ccc(OC3CN(C(=O)NCCc4ccccc4)C3)cc2)n1	880 s
C=CCN1C(=O)COc2ccc(-c3csc(NC(=O)c4cccc(C)c4)n3)cc21	1060 s
